From PubChem BioAssay (NCI)
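At the GI50, growth is halved. TGI marks complete inhibition of growth.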

Legend:
Test in all cases: NCI anticancer screen, dose series, 384-well format
PC-3 prostate = tested on: PC-3 prostate
SNB-75 CNS = tested on: SNB-75 CNS
COLO 205 colon = tested on: COLO 205 colon
NCI-H522 lung = tested on: NCI-H522 lung
MOLT-4 leukemia = tested on: MOLT-4 leukemia
OVCAR-8 ovarian = tested on: OVCAR-8 ovarian
786-0 renal = tested on: 786-0 renal
SF-295 CNS = tested on: SF-295 CNS
SK-MEL-2 melanoma = tested on: SK-MEL-2 melanoma
HCT-15 colon = tested on: HCT-15 colon
HT29 colon = tested on: HT29 colon
DU-145 prostate = tested on: DU-145 prostate
SF-539 CNS = tested on: SF-539 CNS
HOP-92 NSCLC = tested on: HOP-92 NSCLC
HCC-2998 colon = tested on: HCC-2998 colon
M14 melanoma = tested on: M14 melanoma
MCF7 breast = tested on: MCF7 breast
OVCAR-4 ovarian = tested on: OVCAR-4 ovarian
SF-268 CNS = tested on: SF-268 CNS
HCT-116 colon = tested on: HCT-116 colon
K-562 leukemia = tested on: K-562 leukemia
SN12C renal = tested on: SN12C renal
U251 glioblastoma = tested on: U251 glioblastoma
EKVX NSCLC = tested on: EKVX NSCLC
SNB-19 CNS = tested on: SNB-19 CNS
A549 NSCLC = tested on: A549 NSCLC
UACC-62 melanoma = tested on: UACC-62 melanoma
NCI/ADR-RES ovarian = tested on: NCI/ADR-RES ovarian
RPMI-8226 leukemia = tested on: RPMI-8226 leukemia
SK-MEL-5 melanoma = tested on: SK-MEL-5 melanoma
UACC-257 melanoma = tested on: UACC-257 melanoma
CCRF-CEM leukemia = tested on: CCRF-CEM leukemia
SK-MEL-28 melanoma = tested on: SK-MEL-28 melanoma
NCI-H322M lung = tested on: NCI-H322M lung
SW-620 colon = tested on: SW-620 colon
ACHN renal = tested on: ACHN renal
NCI-H23 lung = tested on: NCI-H23 lung
MDA-MB-435 melanoma = tested on: MDA-MB-435 melanoma
LOX IMVI melanoma = tested on: LOX IMVI melanoma
RXF 393 renal = tested on: RXF 393 renal
BT-549 breast = tested on: BT-549 breast
MDA-MB-468 breast = tested on: MDA-MB-468 breast
A498 renal = tested on: A498 renal
SK-OV-3 ovarian = tested on: SK-OV-3 ovarian
CAKI-1 renal = tested on: CAKI-1 renal
NCI-H226 lung = tested on: NCI-H226 lung
HOP-62 NSCLC = tested on: HOP-62 NSCLC
TK-10 renal = tested on: TK-10 renal
HS 578T breast = tested on: HS 578T breast
IGROV1 ovarian = tested on: IGROV1 ovarian
KM12 colon = tested on: KM12 colon
OVCAR-3 ovarian = tested on: OVCAR-3 ovarian
NCI-H460 NSCLC = tested on: NCI-H460 NSCLC
HL-60(TB) leukemia = tested on: HL-60(TB) leukemia
MALME-3M melanoma = tested on: MALME-3M melanoma
OVCAR-5 ovarian = tested on: OVCAR-5 ovarian
T-47D breast = tested on: T-47D breast
MDA-MB-231 breast = tested on: MDA-MB-231 breast
SR leukemia = tested on: SR leukemia

## CC(C)NC(=O)OCc1c(COC(=O)NC(C)C)c(-c2ccc(Cl)c(Cl)c2)n2c1SCC2
PC-3 prostate
  GI50: 10.8 µM
  TGI: 25.5 µM
SNB-75 CNS
  GI50: 2.27 µM
  TGI: 12.7 µM
COLO 205 colon
  GI50: 8.39 µM
  TGI: 21.7 µM
NCI-H522 lung
  GI50: 2.09 µM
  TGI: 13.8 µM
MOLT-4 leukemia
  GI50: 1.1 µM
  TGI: 2.3 µM
OVCAR-8 ovarian
  GI50: 5.97 µM
  TGI: 19.1 µM
786-0 renal
  GI50: 4.31 µM
  TGI: 15.8 µM
SF-295 CNS
  GI50: 3.18 µM
  TGI: 10.1 µM
SK-MEL-2 melanoma
  GI50: 1.83 µM
  TGI: 4.49 µM
HCT-15 colon
  GI50: 5.97 µM
  TGI: 19.8 µM
HT29 colon
  GI50: 10.4 µM
  TGI: 25 µM
DU-145 prostate
  GI50: 5.54 µM
  TGI: 20.7 µM
SF-539 CNS
  GI50: 5.16 µM
  TGI: 18.7 µM
HOP-92 NSCLC
  GI50: 2.58 µM
  TGI: 11.4 µM
HCC-2998 colon
  GI50: 0.687 µM
  TGI: 14.7 µM
M14 melanoma
  GI50: 3.75 µM
  TGI: 14.1 µM
MCF7 breast
  GI50: 4.21 µM
  TGI: 27 µM
OVCAR-4 ovarian
  GI50: 3.3 µM
  TGI: 17.5 µM
SF-268 CNS
  GI50: 3.18 µM
  TGI: 10.3 µM
HCT-116 colon
  GI50: 4 µM
  TGI: 19.8 µM
K-562 leukemia
  GI50: 10.3 µM
  TGI: 22.6 µM
SN12C renal
  GI50: 3.88 µM
  TGI: 14.1 µM
U251 glioblastoma
  GI50: 5.16 µM
  TGI: 18.4 µM
EKVX NSCLC
  GI50: 13.1 µM
  TGI: 26.7 µM
SNB-19 CNS
  GI50: 9.07 µM
  TGI: 27.7 µM
A549 NSCLC
  GI50: 10.2 µM
  TGI: 23.9 µM
UACC-62 melanoma
  GI50: 1.68 µM
  TGI: 4.98 µM
NCI/ADR-RES ovarian
  GI50: 3 µM
  TGI: 13.2 µM
RPMI-8226 leukemia
  GI50: 1.79 µM
  TGI: 5.03 µM
SK-MEL-5 melanoma
  GI50: 4.33 µM
  TGI: 17.8 µM
UACC-257 melanoma
  GI50: 10.2 µM
  TGI: 22.4 µM
CCRF-CEM leukemia
  GI50: 2.07 µM
  TGI: 4.95 µM
SK-MEL-28 melanoma
  GI50: 12.7 µM
  TGI: 26.1 µM
NCI-H322M lung
  GI50: 7.6 µM
  TGI: 21.7 µM
SW-620 colon
  GI50: 5.81 µM
  TGI: 19.6 µM
ACHN renal
  GI50: 2.31 µM
  TGI: 7.85 µM
NCI-H23 lung
  GI50: 1.83 µM
  TGI: 4.26 µM
MDA-MB-435 melanoma
  GI50: 13 µM
  TGI: 25.8 µM
LOX IMVI melanoma
  GI50: 1.84 µM
  TGI: 13.6 µM
RXF 393 renal
  GI50: 2.64 µM
  TGI: 10.5 µM
BT-549 breast
  GI50: 3.92 µM
  TGI: 15.3 µM
MDA-MB-468 breast
  GI50: 0.0344 µM
  TGI: 0.936 µM
A498 renal
  GI50: 0.386 µM
  TGI: 1.76 µM
SK-OV-3 ovarian
  GI50: 3.26 µM
  TGI: 11.4 µM
CAKI-1 renal
  GI50: 1.48 µM
  TGI: 3.44 µM
NCI-H226 lung
  GI50: 0.85 µM
  TGI: 2.35 µM
HOP-62 NSCLC
  GI50: 1.89 µM
  TGI: 4.66 µM
TK-10 renal
  GI50: 1.63 µM
  TGI: 6.15 µM
HS 578T breast
  GI50: 4.85 µM
  TGI: 17.3 µM
IGROV1 ovarian
  GI50: 1.25 µM
  TGI: 4.55 µM
KM12 colon
  GI50: 7.21 µM
  TGI: 21.6 µM
OVCAR-3 ovarian
  GI50: 2.99 µM
  TGI: 14.1 µM
NCI-H460 NSCLC
  GI50: 2.56 µM
  TGI: 11.4 µM
HL-60(TB) leukemia
  GI50: 1.27 µM
  TGI: 2.58 µM
MALME-3M melanoma
  GI50: 5.06 µM
  TGI: 17.8 µM

## CN(C)CCN(C)CC(C)(C)C(=O)/C=C/c1ccc(Cl)cc1
PC-3 prostate
  GI50: 2.62 µM
  TGI: 5.93 µM
SNB-75 CNS
  GI50: 2.91 µM
  TGI: 7.32 µM
COLO 205 colon
  GI50: 5.88 µM
  TGI: 17.1 µM
NCI-H522 lung
  GI50: 1.34 µM
  TGI: 2.77 µM
MOLT-4 leukemia
  GI50: 1.76 µM
  TGI: 3.2 µM
OVCAR-8 ovarian
  GI50: 2.24 µM
  TGI: 4.8 µM
786-0 renal
  GI50: 2.91 µM
  TGI: 9.33 µM
SK-MEL-2 melanoma
  GI50: 1.55 µM
  TGI: 3.32 µM
HCT-15 colon
  GI50: 5.08 µM
  TGI: 17.8 µM
OVCAR-5 ovarian
  GI50: 7.14 µM
  TGI: 19.7 µM
HT29 colon
  GI50: 3.26 µM
  TGI: 11.8 µM
DU-145 prostate
  GI50: 3.22 µM
  TGI: 8.86 µM
SF-539 CNS
  GI50: 10.5 µM
  TGI: 22.4 µM
HOP-92 NSCLC
  GI50: 2.09 µM
  TGI: 4.65 µM
HCC-2998 colon
  GI50: 4.45 µM
  TGI: 13.7 µM
M14 melanoma
  GI50: 2.07 µM
  TGI: 4.06 µM
MCF7 breast
  GI50: 17.2 µM
  TGI: 31.2 µM
OVCAR-4 ovarian
  GI50: 2.37 µM
  TGI: 5.73 µM
SF-268 CNS
  GI50: 2.39 µM
  TGI: 5.29 µM
HCT-116 colon
  GI50: 2 µM
  TGI: 4.18 µM
K-562 leukemia
  GI50: 1.72 µM
  TGI: 3.44 µM
SN12C renal
  GI50: 2.09 µM
  TGI: 5.98 µM
EKVX NSCLC
  GI50: 2.14 µM
  TGI: 5.07 µM
SNB-19 CNS
  GI50: 2.93 µM
  TGI: 9.62 µM
A549 NSCLC
  GI50: 3.3 µM
  TGI: 11.1 µM
UACC-62 melanoma
  GI50: 1.91 µM
  TGI: 3.75 µM
NCI/ADR-RES ovarian
  GI50: 2.06 µM
  TGI: 3.98 µM
RPMI-8226 leukemia
  GI50: 1.71 µM
  TGI: 3.17 µM
T-47D breast
  GI50: 17.9 µM
  TGI: 31.9 µM
MDA-MB-231 breast
  GI50: 3.1 µM
  TGI: 8.03 µM
SK-MEL-5 melanoma
  GI50: 1.9 µM
  TGI: 4.08 µM
UACC-257 melanoma
  GI50: 2.36 µM
  TGI: 4.96 µM
CCRF-CEM leukemia
  GI50: 1.68 µM
  TGI: 3.05 µM
SK-MEL-28 melanoma
  GI50: 3.06 µM
  TGI: 10.2 µM
NCI-H322M lung
  GI50: 3.11 µM
  TGI: 7.72 µM
SW-620 colon
  GI50: 2.09 µM
  TGI: 4.45 µM
ACHN renal
  GI50: 2.02 µM
  TGI: 7.29 µM
NCI-H23 lung
  GI50: 5.84 µM
  TGI: 18.2 µM
SR leukemia
  GI50: 1.42 µM
  TGI: 2.73 µM
LOX IMVI melanoma
  GI50: 0.764 µM
  TGI: 2.12 µM
A498 renal
  GI50: 2.78 µM
  TGI: 7.47 µM
SK-OV-3 ovarian
  GI50: 2.24 µM
  TGI: 5.95 µM
CAKI-1 renal
  GI50: 2.92 µM
  TGI: 12 µM
NCI-H226 lung
  GI50: 5.39 µM
  TGI: 16.2 µM
TK-10 renal
  GI50: 2.44 µM
  TGI: 6.06 µM
HS 578T breast
  GI50: 2.55 µM
  TGI: 6.02 µM
IGROV1 ovarian
  GI50: 2.53 µM
  TGI: 6.1 µM
KM12 colon
  GI50: 2.45 µM
  TGI: 5.05 µM
OVCAR-3 ovarian
  GI50: 1.75 µM
  TGI: 4.03 µM
NCI-H460 NSCLC
  GI50: 2.03 µM
  TGI: 4.12 µM
HL-60(TB) leukemia
  GI50: 1.94 µM
  TGI: 3.37 µM
MALME-3M melanoma
  GI50: 4.76 µM
  TGI: 14.6 µM
